# Earlier results, collected in patent US20160304829A1, “Automated Superparamagnetic Particle Handling System” (LIFE TECHNOLOGIES AS, priority 2006, published 2016).
# Molecular target: streptavidin (Streptomyces avidinii, UniProt P22629)
# Conditions: Piran & Riordan 1990
# streptavidin, sequence (P22629 25-183): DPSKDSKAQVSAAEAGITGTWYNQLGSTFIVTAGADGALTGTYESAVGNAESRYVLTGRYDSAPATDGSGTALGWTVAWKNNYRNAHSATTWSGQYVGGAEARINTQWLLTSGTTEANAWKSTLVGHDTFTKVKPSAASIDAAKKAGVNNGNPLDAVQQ
smiles,measurement,value
"O=C(O)CCCC[C@@H]1SC[C@@H]2NC(=O)N[C@@H]21 [biotin, cis-hexahydro-2oxo-1H-thieno [3,4]imidazole-4-pentanoic acid]","dissociation from streptavidin, times faster than dissociation from avidin",about 30 times
